In PubChem BioAssay (NCI) one finds GI50 and TGI data, which are given here for seven compounds.

Some test systems named below: A549 NSCLC; COLO 205 colon; SNB-75 CNS; SNB-19 CNS; MDA-MB-435; DU-145 prostate; SW-620 colon; CAKI-1 renal; UACC-62 melanoma; HCC-2998 colon.
What all share (test): growth of human tumour cells (NCI), 48 h

Each structure is given as a SMILES string.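 Compound exposure: 48 hours, 5 concentrations, 96-well plates. At the GI50, growth is halved. TGI: concentration producing complete growth inhibition.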 Where only a bound is given, the exact number is not on record here.

With `O=C1/C(=C/c2ccccc2)CN(C(=O)c2cccnc2)C/C1=C\c1ccccc1`, the GI50 in the assay with A549 NSCLC is 3.1 µM; in the assay with COLO 205 colon it was 1.55 µM; in the assay with SNB-75 CNS, 5.48 µM; in the assay with SNB-19 CNS, 1.49 µM; with MDA-MB-435, 0.483 µM; in the assay with DU-145 prostate, 2.04 µM. For the same compound, the GI50 is 0.33 µM with SW-620 colon, 2.83 µM in the assay with CAKI-1 renal, 2.32 µM in the assay on UACC-62 melanoma and 0.939 µM with HCC-2998 colon. Moreover, the TGI in the assay with A549 NSCLC was 12.2 µM; with COLO 205 colon, 3.67 µM; in the assay with SNB-75 CNS, 26.7 µM; with SNB-19 CNS it was 10.8 µM; in the assay with MDA-MB-435, 2.15 µM; in the assay on DU-145 prostate it was 6.13 µM. For the same compound, the TGI in the assay on SW-620 colon stood at 1.8 µM; with CAKI-1 renal it was 10.3 µM; in the assay on UACC-62 melanoma, 5.5 µM; with HCC-2998 colon it was 2.27 µM.
As for `Cc1cc2nc3c4cc(N)ccc4n(CCN(C)C)c3nc2cc1C`, the GI50 with A549 NSCLC was 0.45 µM; in the assay with COLO 205 colon, 0.408 µM; with SNB-75 CNS, 1.16 µM; with SNB-19 CNS, 0.669 µM; in the assay on MDA-MB-435, 0.979 µM; in the assay on DU-145 prostate, 1.11 µM. Moreover, the GI50 in the assay with SW-620 colon is 0.381 µM; in the assay with CAKI-1 renal it was 0.462 µM; in the assay with UACC-62 melanoma, 0.824 µM; in the assay with HCC-2998 colon, 0.876 µM. For the same compound, the TGI in the assay on A549 NSCLC came to 6.14 µM; in the assay on COLO 205 colon, 5.27 µM; with SNB-75 CNS, 6.82 µM; with SNB-19 CNS, 11.4 µM; with MDA-MB-435, 3.25 µM; in the assay with DU-145 prostate, 11.7 µM. The TGI in the assay with SW-620 colon was 10.9 µM; in the assay on CAKI-1 renal, 6.28 µM; with UACC-62 melanoma it was 2.75 µM; in the assay on HCC-2998 colon, 3.85 µM.
Turning to `N[C@@H]1CCCC[C@H]1N.O=C([O-])C(=O)[O-].[Pt+4]`, the GI50 in the assay on A549 NSCLC is 0.615 µM; in the assay on COLO 205 colon, 7.73 µM; with SNB-75 CNS, 18.5 µM; with SNB-19 CNS, 9.85 µM; in the assay on MDA-MB-435, 0.577 µM; in the assay with DU-145 prostate it was 6.17 µM. Further, the GI50 in the assay on SW-620 colon was 0.0468 µM; with CAKI-1 renal it was 0.765 µM; in the assay on UACC-62 melanoma, 2.2 µM; with HCC-2998 colon it was 0.618 µM. For the same compound, the TGI in the assay with A549 NSCLC was greater than 84.1 µM; in the assay with COLO 205 colon it was greater than 74.8 µM; in the assay on SNB-75 CNS it was greater than 100 µM; in the assay on SNB-19 CNS, greater than 100 µM; in the assay with MDA-MB-435, 18.6 µM; in the assay on DU-145 prostate, greater than 100 µM. In addition, the TGI was greater than 83.7 µM in the assay with SW-620 colon, 39.3 µM in the assay on CAKI-1 renal, 23.5 µM in the assay with UACC-62 melanoma and 10 µM in the assay with HCC-2998 colon.
For the compound `CCOc1ccc(-c2nonc2NC(=O)c2cccc(C)c2)cc1OCC`, the GI50 in the assay with A549 NSCLC was greater than 100 µM; in the assay with COLO 205 colon it was greater than 100 µM; with SNB-75 CNS, 14.5 µM; in the assay with SNB-19 CNS it was 34.9 µM; with MDA-MB-435, greater than 100 µM; in the assay with DU-145 prostate, greater than 100 µM. The GI50 was greater than 100 µM in the assay with SW-620 colon, 74 µM in the assay on CAKI-1 renal, greater than 100 µM in the assay with UACC-62 melanoma and greater than 100 µM in the assay on HCC-2998 colon. Moreover, the TGI with A549 NSCLC was greater than 100 µM; in the assay on COLO 205 colon, greater than 100 µM; in the assay with SNB-75 CNS it was 52.3 µM; in the assay with SNB-19 CNS, greater than 100 µM; with MDA-MB-435, greater than 100 µM; in the assay on DU-145 prostate, greater than 100 µM. The TGI with SW-620 colon, in the assay on CAKI-1 renal, with UACC-62 melanoma and in the assay on HCC-2998 colon was greater than 100 µM each time.
With `C/C(=N/Nc1nc2ccccc2n1C)c1ccccn1`, the GI50 with A549 NSCLC was 0.106 µM; in the assay on COLO 205 colon it was 0.0254 µM; in the assay with SNB-75 CNS, 0.246 µM; with SNB-19 CNS it was 0.327 µM; in the assay on MDA-MB-435 it was 0.229 µM; with DU-145 prostate it was 0.141 µM. For the same compound, the GI50 with SW-620 colon was 0.0429 µM; in the assay with CAKI-1 renal it was 0.104 µM; with UACC-62 melanoma it was 0.14 µM; in the assay on HCC-2998 colon, 0.493 µM. Further, the TGI with A549 NSCLC is 14.5 µM; with COLO 205 colon, 10.9 µM; in the assay with SNB-75 CNS it was 8.86 µM; in the assay with SNB-19 CNS it was greater than 100 µM; in the assay on MDA-MB-435, 20.7 µM; with DU-145 prostate, 17.7 µM. For the same compound, the TGI was 21.8 µM in the assay on SW-620 colon, 2.14 µM in the assay on CAKI-1 renal, 0.793 µM in the assay on UACC-62 melanoma and 15.6 µM in the assay with HCC-2998 colon.
On to `Ic1ccccc1-c1ccccc1`, for which the GI50 with A549 NSCLC, with COLO 205 colon, with SNB-75 CNS, in the assay with SNB-19 CNS, with MDA-MB-435 and in the assay with DU-145 prostate was greater than 100 µM each time. The GI50 with SW-620 colon was greater than 100 µM; in the assay with CAKI-1 renal, greater than 100 µM; in the assay with UACC-62 melanoma, 46.7 µM; in the assay on HCC-2998 colon it was greater than 100 µM. In addition, the TGI in the assay with A549 NSCLC, with COLO 205 colon, in the assay with SNB-75 CNS, with SNB-19 CNS, in the assay on MDA-MB-435 and in the assay on DU-145 prostate was greater than 100 µM throughout. Besides, the TGI in the assay on SW-620 colon, in the assay with CAKI-1 renal, in the assay with UACC-62 melanoma and in the assay with HCC-2998 colon was greater than 100 µM each time.
As to `NC(N)=N/N=C\c1cccc(OCc2ccccc2)c1`, the GI50 in the assay with A549 NSCLC is 9.2 µM; in the assay with COLO 205 colon, 1.78 µM; in the assay on SNB-75 CNS it was 7.03 µM; in the assay on SNB-19 CNS it was 10.3 µM; with MDA-MB-435 it was 1.97 µM; in the assay with DU-145 prostate it was 11.4 µM. For the same compound, the GI50 in the assay with SW-620 colon was 1.68 µM; in the assay with CAKI-1 renal, 7.5 µM; in the assay on UACC-62 melanoma, 1.67 µM; with HCC-2998 colon it was 1.81 µM. The TGI in the assay on A549 NSCLC turned out to be 24.1 µM; in the assay with COLO 205 colon, 3.36 µM; in the assay on SNB-75 CNS, 23.4 µM; in the assay with SNB-19 CNS, 23.3 µM; in the assay on MDA-MB-435, 4.56 µM; with DU-145 prostate, 23.9 µM. Also, the TGI came to 3.33 µM with SW-620 colon, 22.2 µM in the assay with CAKI-1 renal, 3.45 µM with UACC-62 melanoma and 3.54 µM in the assay with HCC-2998 colon.
